Like-named read-outs stand apart in the source and are kept apart here.
Tests used:
hMAO-A = molecular target: T1, hMAO-A (Homo sapiens, UniProt P21397); assay: biochemical; details: for remaining activity at 10 µM: read-out: Residual Activity at 10 µM (%) hMAO-A
T1 construct: purchased Sigma-Aldrich
T1 sequence (P21397 1-527): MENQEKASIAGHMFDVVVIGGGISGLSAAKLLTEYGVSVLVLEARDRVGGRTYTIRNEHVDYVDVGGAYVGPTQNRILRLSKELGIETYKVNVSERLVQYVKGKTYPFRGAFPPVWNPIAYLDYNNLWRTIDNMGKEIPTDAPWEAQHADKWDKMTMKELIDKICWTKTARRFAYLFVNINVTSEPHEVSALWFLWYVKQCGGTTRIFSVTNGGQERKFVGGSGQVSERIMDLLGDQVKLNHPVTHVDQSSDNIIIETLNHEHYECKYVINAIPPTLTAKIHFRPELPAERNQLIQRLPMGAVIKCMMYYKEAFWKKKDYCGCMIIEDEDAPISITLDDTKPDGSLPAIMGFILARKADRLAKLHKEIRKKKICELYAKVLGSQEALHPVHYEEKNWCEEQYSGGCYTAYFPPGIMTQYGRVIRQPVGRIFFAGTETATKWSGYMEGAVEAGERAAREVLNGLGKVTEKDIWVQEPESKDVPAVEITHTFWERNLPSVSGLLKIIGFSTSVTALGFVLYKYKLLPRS
Experimental: (§1) All other chemicals were of reagent grade.
(§2) hMAO-A and -B activities were determined using a continuous spectrophotometric method, as described previously. […] AChE and BChE activities were assayed as described by Ellman et al., with slight modification. Reactions were performed using AChE and BChE in the 0.5 mL reaction mixtures including 0.5 mM substrate (ATCI and BTCI, respectively) and color reagent (DTNB). […] Reaction rates are expressed as changes in absorbance per min.. Inhibitory activities of AChE and BChE were measured after preincubating enzyme with inhibitors for 15 min before adding DTNB and each substrate.
Inhibitory types and Ki values were determined using Lineweaver-Burk plots and secondary plots of their slopes, respectively.

hMAO-B [1] = molecular target: T2, hMAO-B (Homo sapiens, UniProt P27338); assay: biochemical; type: biochemical; details: for remaining activity at 10 µM: read-out: Residual Activity at 10 µM (%) hMAO-B; for SI: hMAO-B selectivity: IC50 of hMAO-A divided by IC50 of hMAO-B
T2 construct: purchased Sigma-Aldrich
T2 sequence (P27338 1-520): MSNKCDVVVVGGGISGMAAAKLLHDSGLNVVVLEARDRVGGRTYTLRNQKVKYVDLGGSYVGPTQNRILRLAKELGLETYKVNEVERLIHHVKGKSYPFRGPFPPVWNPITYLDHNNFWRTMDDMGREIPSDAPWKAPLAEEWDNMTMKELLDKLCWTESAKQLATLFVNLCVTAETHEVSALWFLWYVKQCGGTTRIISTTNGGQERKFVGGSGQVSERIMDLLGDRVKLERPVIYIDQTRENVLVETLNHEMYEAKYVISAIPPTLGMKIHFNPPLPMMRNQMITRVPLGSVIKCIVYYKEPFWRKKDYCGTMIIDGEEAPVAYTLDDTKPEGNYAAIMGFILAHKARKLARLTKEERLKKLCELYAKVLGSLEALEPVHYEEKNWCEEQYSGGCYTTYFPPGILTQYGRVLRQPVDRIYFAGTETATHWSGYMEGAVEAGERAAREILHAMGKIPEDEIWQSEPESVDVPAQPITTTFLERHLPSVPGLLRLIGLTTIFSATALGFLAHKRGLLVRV
Experimental: as §1
as §2, with “substrate. […]” for “substrate.”

AChE = molecular target: T3, AChE (Electrophorus electricus, UniProt O42275); assay: AChE inhibition (Ellman method); type: biochemical; details: read-out: Residual Activity at 10 µM (%) AChE
T3 construct: purchased Sigma-Aldrich
T3 sequence (O42275 24-633): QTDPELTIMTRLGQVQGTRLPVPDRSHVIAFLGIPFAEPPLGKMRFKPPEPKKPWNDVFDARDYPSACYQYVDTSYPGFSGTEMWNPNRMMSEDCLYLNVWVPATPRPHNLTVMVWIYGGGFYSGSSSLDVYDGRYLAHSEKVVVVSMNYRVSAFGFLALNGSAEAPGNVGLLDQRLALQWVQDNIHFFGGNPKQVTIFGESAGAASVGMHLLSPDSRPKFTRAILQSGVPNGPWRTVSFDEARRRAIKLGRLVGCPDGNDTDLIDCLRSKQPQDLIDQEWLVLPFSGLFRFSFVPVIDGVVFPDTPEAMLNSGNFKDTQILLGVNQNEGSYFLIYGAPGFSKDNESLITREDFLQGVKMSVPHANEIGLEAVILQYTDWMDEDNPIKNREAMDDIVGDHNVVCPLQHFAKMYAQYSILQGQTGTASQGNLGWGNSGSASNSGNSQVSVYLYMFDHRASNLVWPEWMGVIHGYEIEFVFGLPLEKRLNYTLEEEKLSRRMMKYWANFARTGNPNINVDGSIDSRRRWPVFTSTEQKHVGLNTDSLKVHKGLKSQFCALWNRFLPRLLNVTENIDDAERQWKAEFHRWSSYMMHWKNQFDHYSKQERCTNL
Experimental: as §1
as §2, with “substrate. […]” for “substrate.”

BChE = molecular target: T4, BChE (Equus caballus, UniProt P81908); assay: BChE inhibition (Ellman method); type: biochemical, equine; details: read-out: Residual Activity at 10 µM (%) BChE
T4 construct: BChE from equine serum; purchased Sigma-Aldrich; host or cells: equine serum
T4 sequence (P81908 whole entry): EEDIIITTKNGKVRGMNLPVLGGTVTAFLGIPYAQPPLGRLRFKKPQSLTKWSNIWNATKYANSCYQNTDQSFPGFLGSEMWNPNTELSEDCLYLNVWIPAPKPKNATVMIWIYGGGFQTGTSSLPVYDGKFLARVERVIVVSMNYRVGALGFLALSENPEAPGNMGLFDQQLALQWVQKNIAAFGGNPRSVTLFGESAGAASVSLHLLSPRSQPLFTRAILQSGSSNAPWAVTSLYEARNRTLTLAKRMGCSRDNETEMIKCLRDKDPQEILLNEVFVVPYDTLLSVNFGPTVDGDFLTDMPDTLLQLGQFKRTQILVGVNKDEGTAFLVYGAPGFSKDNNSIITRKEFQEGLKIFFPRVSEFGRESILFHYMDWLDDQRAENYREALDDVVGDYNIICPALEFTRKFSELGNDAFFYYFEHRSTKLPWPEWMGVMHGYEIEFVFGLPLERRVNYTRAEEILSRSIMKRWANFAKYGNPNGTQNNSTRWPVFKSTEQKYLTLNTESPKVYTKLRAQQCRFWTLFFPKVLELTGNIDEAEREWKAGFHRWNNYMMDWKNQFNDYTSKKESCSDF
Experimental: as §1
as §2, with “substrate. […]” for “substrate.”

BACE1 = molecular target: T5, BACE1 (Homo sapiens, UniProt P56817); assay: BACE1 inhibition (fluorescent activity detection kit); type: biochemical; details: read-out: Residual Activity at 10 µM (%) BACE1
T5 construct: purchased Sigma-Aldrich
T5 sequence (P56817 46-501): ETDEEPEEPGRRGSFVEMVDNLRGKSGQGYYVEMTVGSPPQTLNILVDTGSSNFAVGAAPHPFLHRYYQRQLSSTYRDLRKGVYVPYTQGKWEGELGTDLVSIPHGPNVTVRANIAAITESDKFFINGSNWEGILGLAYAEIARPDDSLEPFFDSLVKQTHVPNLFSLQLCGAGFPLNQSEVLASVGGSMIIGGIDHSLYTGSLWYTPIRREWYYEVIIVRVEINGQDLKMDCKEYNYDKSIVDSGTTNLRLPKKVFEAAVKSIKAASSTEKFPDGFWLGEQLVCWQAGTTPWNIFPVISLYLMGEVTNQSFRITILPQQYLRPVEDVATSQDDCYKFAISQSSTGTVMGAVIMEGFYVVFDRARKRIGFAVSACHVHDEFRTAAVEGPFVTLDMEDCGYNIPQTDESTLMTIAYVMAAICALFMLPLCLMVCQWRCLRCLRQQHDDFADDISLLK

hMAO-B [2] = molecular target: T2, hMAO-B; details: read-out: hMAO-B inhibitory activity; cited from earlier work

For `C[C@@H]1O[C@@H](OC[C@H]2O[C@@H](Oc3c(-c4ccc(O)c(O)c4)oc4cc(O)cc(O)c4c3=O)[C@H](O)[C@@H](O)[C@@H]2O)[C@H](O)[C@H](O)[C@H]1O` [Compound 1, rutin], the IC50 (hMAO-A) was > 40 µM, the remaining activity at 10 µM (hMAO-A) was 96.8 ± 1.52% and the IC50 (hMAO-B [1]) was > 40 µM. For the same compound, the remaining activity at 10 µM (hMAO-B [1]) was 75.2 ± 6.76%, the remaining activity at 10 µM (AChE) was 92.4 ± 7.16% and the remaining activity at 10 µM (BChE) was 99.2 ± 0.88%. It also gave a remaining activity at 10 µM (BACE1) of 82.6 ± 3.77%.
In the case of `COc1cc2c(cc1O[C@@H]1O[C@H](CO)[C@@H](O)[C@H](O)[C@H]1O)O[C@H](c1ccccc1)[C@@H](O)C2=O` [Compound 2, (2R,3R)-3-hydroxy-7-O-β-D-glucopyranoside-6-methoxyflavanone], the IC50 (hMAO-A) is reported as > 40 µM, the remaining activity at 10 µM (hMAO-A) is reported as 98.3 ± 2.01% and the IC50 (hMAO-B [1]) is reported as > 40 µM. For the same compound, the remaining activity at 10 µM (hMAO-B [1]) was 69.6 ± 2.46%, the remaining activity at 10 µM (AChE) was 84.8% and the remaining activity at 10 µM (BChE) was 97.5 ± 0.42%. The remaining activity at 10 µM (BACE1) was 164 ± 2.96%.
With `COc1cc([C@H]2OC[C@H]3[C@@H]2CO[C@@H]3c2cc(OC)c(O[C@@H]3O[C@H](CO)[C@@H](O)[C@H](O)[C@H]3O)c(OC)c2)cc(OC)c1O` [Compound 3, (–)-syringaresinol-4-O-β-D-glucopyranoside] the IC50 (hMAO-A) was > 40 µM, the remaining activity at 10 µM (hMAO-A) was 80 ± 2.02% and the IC50 (hMAO-B [1]) was > 40 µM. The remaining activity at 10 µM (hMAO-B [1]) was 93.6 ± 3.47%, the remaining activity at 10 µM (AChE) was 95.22 ± 0.08% and the remaining activity at 10 µM (BChE) was 98.9 ± 1.54%. It also gave a remaining activity at 10 µM (BACE1) of 76.7 ± 4.92%.
For `COc1ccc(-c2coc3cc(O[C@@H]4O[C@H](CO)[C@@H](O)[C@H](O)[C@H]4O)ccc3c2=O)cc1` [Compound 4, ononin], the IC50 (hMAO-A) was > 40 µM, the remaining activity at 10 µM (hMAO-A) was 98.3 ± 1.64% and the IC50 (hMAO-B [1]) was 28.5 ± 1.55 µM. For the same compound, the SI (hMAO-B [1]) was >1.40, the remaining activity at 10 µM (hMAO-B [1]) was 63.5 ± 1.23% and the remaining activity at 10 µM (AChE) was 86.1 ± 1.79%. It also gave a remaining activity at 10 µM (BChE) of 96.7 ± 1.68% and a remaining activity at 10 µM (BACE1) of 85.9 ± 0.08%.
With `COc1cc([C@H]2OC[C@H]3[C@@H]2CO[C@@H]3c2cc(OC)c(O)c(OC)c2)cc(OC)c1O` [Compound 5, (+)-syringaresinol] the IC50 (hMAO-A) was > 40 µM, the remaining activity at 10 µM (hMAO-A) was 80.4 ± 6.57% and the IC50 (hMAO-B [1]) was 24.3 ± 2.2 µM. The remaining activity at 10 µM (hMAO-B [1]) was 63.2 ± 6.24% and the remaining activity at 10 µM (BACE1) was 81.7 ± 4.01%.
With `COc1cc2c(cc1O)O[C@H](c1ccccc1)[C@@H](O)C2=O` [Compound 6, (2R,3R)-3,7-dihydroxy-6-methoxyflavanone] the IC50 (hMAO-A) was > 40 µM, the remaining activity at 10 µM (hMAO-A) was 94.8 ± 1.9% and the IC50 (hMAO-B [1]) was > 40 µM. The remaining activity at 10 µM (hMAO-B [1]) was 94.6 ± 4.21%, the remaining activity at 10 µM (AChE) was 84.3 ± 1.31% and the remaining activity at 10 µM (BChE) was 91.8 ± 1.35%. The remaining activity at 10 µM (BACE1) was 95.72 ± 0.86%.
In the case of `COc1cc(O)c2c(=O)c(-c3ccc(O)cc3O)coc2c1` [Compound 7, cajanin], the IC50 (hMAO-A) is reported as 13.1 ± 0.23 µM, the remaining activity at 10 µM (hMAO-A) is reported as 56.9 ± 0.92% and the IC50 (hMAO-B [1]) is reported as 5.18 ± 0.11 µM. The SI (hMAO-B [1]) was 2.53, the remaining activity at 10 µM (hMAO-B [1]) was 31.6 ± 4.21% and the remaining activity at 10 µM (AChE) was 70.8 ± 7.2%. For the same compound, the remaining activity at 10 µM (BChE) was 86.9 ± 2.11% and the remaining activity at 10 µM (BACE1) was 83.25 ± 0.45%.
Compound `COc1cc(O)c2c(=O)c(-c3ccc(O)cc3)coc2c1` [Compound 9, prunetin] has an IC50 (hMAO-A) of 2.49 ± 0.32 µM, a remaining activity at 10 µM (hMAO-A) of 24.8 ± 1.22% and an IC50 (hMAO-B [1]) of 5.18 ± 0.059 µM. The SI (hMAO-B [1]) was 0.48, the remaining activity at 10 µM (hMAO-B [1]) was 30.8 ± 0.82% and the remaining activity at 10 µM (AChE) was 83.2 ± 4.76%. It also gave a remaining activity at 10 µM (BChE) of 93 ± 0.65% and a remaining activity at 10 µM (BACE1) of 87.73 ± 0.59%.
With `COc1cc(O)c2c(=O)c(-c3ccc(OC)c(O)c3)coc2c1` [Compound 10, 7,4′-dimethyl-3′-hydroxygenistein] the IC50 (hMAO-A) was 8.05 ± 0.1 µM, the remaining activity at 10 µM (hMAO-A) was 41 ± 1.09% and the IC50 (hMAO-B [1]) was 3.47 ± 0.055 µM. The SI (hMAO-B [1]) was 2.32, the remaining activity at 10 µM (hMAO-B [1]) was 16.9 ± 2.47% and the remaining activity at 10 µM (AChE) was 78.4 ± 3.4%. It also gave a remaining activity at 10 µM (BChE) of 98.1 ± 1.98% and a remaining activity at 10 µM (BACE1) of 78.86 ± 0.56%.
Compound `COc1ccc(-c2coc3cc(OC)ccc3c2=O)cc1` [Compound 11, 7,4′-dimethoxyisoflavone] has an IC50 (hMAO-A) of 9.8 ± 0.27 µM, a remaining activity at 10 µM (hMAO-A) of 49.1 ± 2.25% and an IC50 (hMAO-B [1]) of 13.7 ± 0.1 µM. It also gave an SI (hMAO-B [1]) of 0.72, a remaining activity at 10 µM (hMAO-B [1]) of 62 ± 1.09% and a remaining activity at 10 µM (AChE) of 82.7 ± 5.44%. It also gave a remaining activity at 10 µM (BChE) of 98.7 ± 0.66% and a remaining activity at 10 µM (BACE1) of 91.96 ± 0.59%.
`COc1ccc2c(c1)OC[C@H]1c3cc4c(cc3O[C@@H]21)OCO4` [Compound 12, 3-methoxy-8,9-methylenedioxypterocarpan] gave an IC50 (hMAO-A) of 12.5 ± 0.33 µM, a remaining activity at 10 µM (hMAO-A) of 60.3 ± 0.9% and an IC50 (hMAO-B [1]) of 3.36 ± 0.09 µM. For the same compound, the SI (hMAO-B [1]) was 3.72, the “times lower MAO-B inhibition than compound 8” value (hMAO-B [1]; ratio of IC50 values versus compound 8) was 7.47 times and the remaining activity at 10 µM (hMAO-B [1]) was 13 ± 0.72%. It also gave a remaining activity at 10 µM (AChE) of 84.9 ± 0.61%, a remaining activity at 10 µM (BChE) of 93.6 ± 2.11% and a remaining activity at 10 µM (BACE1) of 102.4 ± 0.4%.
In the case of `COc1ccc(-c2cc(=O)c3c(O)cc(OC)cc3o2)cc1` [acacetin 7-methyl ether], the IC50 (hMAO-B [2]) is given as 0.2 µM.
For `COc1ccc(-c2coc3cc(O)ccc3c2=O)cc1O` [calycosin], the IC50 (hMAO-B [2]) is given as 0.24 µM.
